From patent publication US20080207733A1, “Composition for the Treatment of Vitiligo” (priority 2003, published 2008)
“And” between values parts separate entries of the source, which are not always exact repeats. Equal entries are not always repeated.

What was measured:
[1] = product to be used in the trial
[2] = toxicological, teratologic and clinical trials
[3] = second part of Table 2
[4] = system: patients suffering from vitiligo; test: Clinical trial in humans, repigmentation in vitiligo
[5] = topical, 3 times a week, 6 months, Melagenina Plus-resistant patients

In the case of `O=C(O)[C@@H]1CCCN1` [L-Proline], the “dermal and ophthalmic irritability” value [1] is reported as “innocuousness”, the adverse reactions [2] is reported as “No severe adverse reactions were reported” and the “Spectrum determination, Fresh” value (200-205 nm, hydroalcoholic solution just prepared) is reported as 0.051 UA. For the same compound, the “Spectrum determination, 12 months” value (200-205 nm, hydroalcoholic solution, 12 months) was 0.072UA, the “Spectrum determination, 24 months” value (200-205 nm, hydroalcoholic solution, 24 months) was 0.071 UA and the “remains stable after preparing the solution” value (hydroalcoholic solution, spectrophotometric determinations and aminoacids analysis) was 2 years. For the same compound, the “L-Proline concentration, Fresh” value ([3]; hydroalcoholic solution just prepared) was 1.01 mg/mL, the “L-Proline concentration, 12 months” value ([3]; hydroalcoholic solution, 12 months) was 1.00 mg/mL and the “L-Proline concentration, 24 months” value ([3]; hydroalcoholic solution, 24 months) was 1.00 mg/mL. The “reversibility of repigmentant effect once application is discontinued” value ([4]; human, in vivo) was “irreversible”, the “Effect Evaluation” value ([4]; per patient No. 1-21, 1.5 mg/mL hydroalcoholic solution at 80%, topical, 3 times a week, 6 months) was “Noteworthy (10×) and Poor (2×)” and the “increase of lesions or local or systemic side effect” value ([4]; topical, 3 times a week, 6 months) was “no increase of lesions or local or systemic side effect were reported in any of the cases”. The “patients that did not show response to the treatment” value [4, 5] was 2 patients of 22 and the “patients that showed noteworthy to moderate response” value [4, 5] was 18 patients.
